How the values were obtained:
Test in all cases: Cell death protection, LDH release after RSL3
Assay type in all cases: cell-based
MLE-12 = conditions: MLE12, MLE-12, RSL3 1 μM, 24 hours
Procedure: (§1) To confirm the protective effect on cardiac cells, adrenal medulla cells, renal fibroblasts, retinal epithelial cells, lung epithelial cells, renal proximal tubule epithelial cells, hippocampal neurons, and fibroblasts, 4×10^3 to 1.2×10^4 cells of each cell type were dispensed into 96-well plates and cultured for 18 to 24 hours. Each well was treated with the example compound, which was diluted so that the final concentration became 0.001, 0.003, 0.01, 0.03, 0.1, 0.3, 1, 3, and 10 μM, and culture was performed for 15 to 20 minutes. […] To confirm the cell protecting effect of the example compounds, a cytotoxicity LDH assay kit [Dojindo; CK12] was used to measure the level of extracellular secretion of lactate dehydrogenase (LDH). Briefly, at the time point when the 24-hour treatment of each cell type with RSL3 ended, 70 μL of each supernatant from cell culture medium was taken and transferred to a new 96-well plate. After adding 70 μL/well (the same amount as the sample) of the assay buffer included in the kit, the resulting mixture was wrapped with foil and allowed to react at room temperature for 15 to 20 minutes. After observing the color change of the sample, 35 μL/well of a stop solution was added, and the absorbance value at 490 nm was measured using an iD3 spectrophotometer to calculate the EC50 value.
(§2) Table 3. Effect of protecting cardiac cells, adrenal medulla cells, renal fibroblasts, retinal epithelial cells, lung epithelial cells, renal proximal tubule epithelial cells, hippocampal neurons, and fibroblasts against cell death induced by RSL3.

PC-12 = conditions: Rattus norvegicus, PC-12, RSL3 0.3 μM, 24 hours
Procedure: as §1, §2

HK-2 = conditions: Homo sapiens, HK-2, RSL3 0.3 μM, 24 hours
Procedure: as §1, §2

H9C2 = conditions: Rattus norvegicus, H9C2, RSL3 0.5 μM, 24 hours
Procedure: as §1, §2

NRK-49F = conditions: Rattus norvegicus, RSL3 3 μM, 24 hours
Procedure: as §1, §2

ARPE-19 = conditions: Homo sapiens, ARPE-19, RSL3 0.3 μM, 24 hours
Procedure: as §1, §2

NIH/3T3 = conditions: Mus musculus, NIH3T3, NIH/3T3, RSL3 3 μM, 24 hours
Procedure: as §1, §2

HT-22 = conditions: Mus musculus, HT-22, RSL3 0.3 μM, 24 hours
Procedure: as §1, §2

Row | Structure (SMILES) | EC50 (MLE-12) | EC50 (PC-12) | EC50 (HK-2) | EC50 (H9C2) | EC50 (NRK-49F) | EC50 (ARPE-19) | EC50 (NIH/3T3) | EC50 (HT-22)
1 | O=S1(=O)CCN(Cc2cc(NCC3CCOCC3)c3[nH]c(-c4ccccc4)cc3c2)CC1 [Example 6, 4-((2-phenyl-7-(((tetrahydro-2H-pyran-4-yl)methyl)amino)-1H-indol-5-yl)methyl)thiomorpholine 1,1-dioxide] | ≤ 0.03 µM | 0.03 to 0.1 µM | ≤ 0.03 µM | ≤ 0.03 µM | ≤ 0.03 µM | ≤ 0.03 µM | 0.03 to 0.1 µM | 0.03 to 0.1 µM
2 | Cc1cc(NC2CCCC2)c2[nH]c(-c3ccccc3)cc2c1 [Example 33, N-cyclopentyl-5-methyl-2-phenyl-1H-indole-7-amine] | ≤ 0.03 µM | 0.03 to 0.1 µM | ≤ 0.03 µM | ≤ 0.03 µM | ≤ 0.03 µM | ≤ 0.03 µM | ≤ 0.03 µM | ≤ 0.03 µM
3 | CCOC(=O)c1cc(NC2CCCC2)c2[nH]c(-c3ccccc3)cc2c1 [Example 2, ethyl 7-(cyclopentylamino)-2-phenyl-1H-indole-5-carboxylate] | ≤ 0.03 µM | ≤ 0.03 µM | ≤ 0.03 µM | ≤ 0.03 µM | ≤ 0.03 µM | ≤ 0.03 µM | ≤ 0.03 µM | ≤ 0.03 µM
4 | CS(=O)(=O)N1CCC(Nc2cc(CN3CCS(=O)(=O)CC3)cc3cc(-c4ccccc4)[nH]c23)CC1 [Example 22, 4-((7-((1-(methylsulfonyl)piperidin-4-yl)amino)-2-phenyl-1H-indole-5-yl)methyl)thiomorpholine 1,1-dioxide] | ≤ 0.03 µM | 0.03 to 0.1 µM | 0.03 to 0.1 µM | 0.03 to 0.1 µM | 0.03 to 0.1 µM | ≤ 0.03 µM | 0.03 to 0.1 µM | 0.03 to 0.1 µM
